This is an account of results in patent publication US11161839B2, “2-quinolone derived inhibitors of BCL6” (Cancer Research Technology Limited, priority 2017, dated 2021).

For assay [1], the target named is human BCL6 BTB domain (Trx-6xHis-BCL6) (Homo sapiens (Human), UniProt P41182). Kind of assay: HTRF in vitro assay (BCL6 BTB domain / BCOR-AF633 peptide). In kind it is binding. For orientation: Time-resolved FRET reads energy transfer from a long-lived donor to a nearby acceptor.
Protocol: The % inhibition at each concentration was calculated by normalising FRET ratio to the appropriate high (DMSO with all reagents) and low (DMSO without BCL6) controls.
Assay [2] has as its system SU-DHL-4 cells. Description: 14-day cell proliferation assay (CellTiter Glo). In kind it is cell-based. The following applies: Homo sapiens, SU-DHL4 cells, 14 days. The procedure: (§1) The volume of medium containing 2000 cells in the control well was calculated and this volume of cells was transferred from every well of the assay plates to the corresponding well of the fresh plates containing compound. After 14 days, CellTiter Glo reagent (Promega) was added to the medium in each well of the assay plate at a ratio of 1:2, mixed on a plate shaker, then incubated at room temperature for 10 minutes. Luminescence was measured using an Envision plate reader (Perkin Elmer) and the relative luminescence at each compound concentration, compared to DMSO alone, was calculated. IC50 were determined using a 4-parameter curve fit in Dotmatics (Bishops Stortford, UK).
A general note: Cellular ATP, detected with luciferase, serves as a proxy for viable cell number.

Assay [3] concerns the target BCL6 (Homo sapiens (Human), UniProt P41182). Kind of assay: assays described in the Examples section (not specified which). Particulars: tested compounds outside desired/preferred activity. The procedure: DC50 values (compound concentration at which 50% of endogenous BCL6 protein is degraded) were determined in SUDHL-4 cells (American Type Culture Collection) in an immunofluorescence-based assay using an InCell2200 high content imaging system (GE Healthcare). Briefly, 40 μL of lymphoma suspension cells cultured in RPMI 1640-10% FBS (Sigma-Aldrich or PAN Biotech UK Ltd) were platted on fibronectin (Sigma catalogue F1141)-coated 384 well Cell Carrier Ultra plate (Perkin Elmer catalogue 6057300) at 1.2 104 cells/well. After 20 hours cell culture at 37° C./C02 incubator, compounds were dispensed in the cell culture plate using ECHO550 acoustic dispenser (Labcyte, Inc.), as 8 point-concentration response (ranging from 5 nM to 10 μM) in 0.67% final DMSO concentration. Cells were incubated with compound for 2 hours at 37° C./C02 incubator followed by fixation in 4.5% formaldehyde (37% formaldehyde solution, Sigma catalogue F8775) at room temperature for 15 min. After fixing, cells were washed in 1×TBS (Tris Buffer Saline) using a Power Washer 384 (Tecan Group Ltd). Blocking and cell permeabilisation were performed by incubating the fixed cells for 1 hour at room temperature in 1×TBS, 5% BSA, 1% Triton X100, followed by three washes on PW384 plate washer. Primary and secondary antibodies were prepared in 1×TBS, 1% BSA, 0.2% Triton X100. BCL6 expression was detected by incubating the cells for 1 h30 with BCL6 rabbit polyclonal antibody (Sigma Catalogue HPA004899) at 1:250, 0.8 μg/ml, followed by 1 hour in chicken anti-Rabbit Alexa 488 conjugated antibody (Life Technology) at 1:500. After incubation in each antibody, cells were washes four times in 1×TBS-0.05% tween on PW384 plate washer. Cells were finally incubated for 60 min with nuclear staining RedDot2 dye (Biotium) at 0.5× the stock concentration in 1×TBS. BCL6 expression in the absence or presence of compound was detected on InCell2200 with 20× objective and quantified on InCell Analyser 3.7.2 workstation (GE Healthcare). The % response at each concentration was calculated by normalising BCL6 expression in the presence of compound to the appropriate high (DMSO) and low (DMSO with 7 μM CCT369260) controls.
as §1

Assay [4] has as its target BCL6-NCOR2(SMRT) corepressor protein-protein interaction (Homo sapiens (Human), UniProt P41182). Kind of assay: NanoBRET cell assay in transfected HEK293T cells. In kind it is cell-based. The following applies: further generated data (Table 2b); HEK293T cells, 6 hr; read-out: NanoBRET cell pIC50 (converted).
Description: A cellular nano-Bioluminescence Resonance Energy Transfer (nanoBRET) assay (Promega NanoBRET Nano-Glo Detection System, catalogue number N1662) was used to detect inhibition of the BCL6-NCOR2(SMRT) corepressor protein-protein interaction. DNA encoding full length BCL6 and NCOR2 were inserted into pFC32K.NanoLuc and pFC14K.HaloTag vectors (Promega) to produce C-terminal tagged fusion proteins BCL6-nanoLuc and NCOR2-HaloTag, respectively. […] Frozen transfected HEK293T cells were thawed, centrifuged and freezing medium was replaced by phenol red-free OptiMEM+4% FBS (Life Technology). […] Cells were incubated for 6 hr at 37° C./5% CO2 then NanoBRET furimazine substrate (Promega) was added to give a final concentration of 10 μM. After a short centrifugation the plates were read on an Envision (Perkin Elmer) plate reader equipped with a LUM/D600 Dual mirror, Lum 450/40 nm bandpass and D605 nm longpass filters, with a 0.2 sec reading to determine the BRET ratio. The % inhibition at each test concentration was calculated by normalising the BRET ratio to the appropriate high and low controls.
[5] abbreviates: further generated data (Table 1b), 1 nM Trx-6xHis-BCL6, 0.5 nM anti-6xHis-Terbium cryptate.
Where [6] appears, read: initially generated data (Table 1a), 10 nM Trx-6xHis-BCL6, 1 nM anti-6xHis-Terbium cryptate.

A word on the GI50: it is the concentration giving 50% growth inhibition. Low values mean more potent growth inhibition, high ones less potent growth inhibition. In the case of `C[C@@H]1CN(c2ncc(Cl)c(Nc3ccc4c(c3)c(NC(C)(C)c3ncccn3)nc(=O)n4C)n2)C[C@H](C)C1(F)F` [Example 25a, 6-((5-chloro-2-((3R,5S)-4,4-difluoro-3,5-dimethylpiperidin-1-yl)pyrimidin-4-yl)amino)-1-methyl-4-((2-(pyrimidin-2-yl)propan-2-yl)amino)quinazolin-2(1H)-one], the “HTRF pIC50” value in assay [1] (setting [5]) was determined as 6.73. The compound also displayed a GI50 in assay [2] of 110 nM.
With `CC(Nc1cc(=O)[nH]c2ccc(Nc3ccnc(Cl)c3C#N)cc12)c1cnn(C)c1` (centres unmarked) [2-chloro-4-((4-((1-(1-methyl-1H-pyrazol-4-yl)ethyl)amino)-2-oxo-1,2-dihydroquinolin-6-yl)amino)nicotinonitrile], the “activity in the assays described in the Examples section” value in assay [3] is on record as “did not exhibit the desired activity”.
With `CC(Nc1cc(=O)n(C)c2ccc(Nc3nc(N4C[C@H](C)C[C@H](C)C4)nc(C(F)(F)F)c3Cl)cc12)c1ncccn1` (stereo partly drawn) [6-((5-chloro-2-((3S,5R)-3,5-dimethylpiperidin-1-yl)-6-(trifluoromethyl)pyrimidin-4-yl)amino)-1-methyl-4-((1-(pyrimidin-2-yl)ethyl)amino)quinolin-2(1H)-one], in assay [3], the “activity in the assays described in the Examples section” value is on record as “not to exhibit the preferred activity”.
In the case of `CC(Nc1cc(=O)n(C)c2ccc(Nc3ccnc(Cl)c3C#N)cc12)c1ncc(-c2cnn(C)c2)cn1` (centres unmarked) [Example 10c, 2-chloro-4-((1-methyl-4-((1-(5-(1-methyl-1H-pyrazol-4-yl)pyrimidin-2-yl)ethyl)amino)-2-oxo-1,2-dihydroquinolin-6-yl)amino)nicotinonitrile], in assay [1] (setting [5]), the “HTRF pIC50” value is on record as 7.45. In assay [4], the IC50 was 490 nM. The GI50 in assay [2] amounted to 460 nM.
For `CC(Nc1cc(=O)n(C)c2ccc(Nc3ccnc(Cl)c3C#N)cc12)c1ncc(C2CCOCC2)cn1` (centres unmarked) [Example 10w, 2-chloro-4-[[1-methyl-2-oxo-4-[1-(5-tetrahydropyran-4-ylpyrimidin-2-yl)ethylamino]-6-quinolyl]amino]pyridine-3-carbonitrile], the “HTRF pIC50” value in assay [1] (setting [5]) was 7.58. Moreover, the IC50 in assay [4] is 912 nM. The same compound gave a GI50 in assay [2] of 1340 nM.
For `CC(Nc1cc(=O)n(C)c2ccc(Nc3ccnc(Cl)c3C#N)cc12)c1ncc(N2CCOC(C(F)(F)F)C2)cn1` (centres unmarked) [Example 10d, 2-chloro-4-((1-methyl-2-oxo-4-((1-(5-(2-(trifluoromethyl)morpholino)pyrimidin-2-yl)ethyl)amino)-1,2-dihydroquinolin-6-yl)amino)nicotinonitrile], the “HTRF pIC50” value in assay [1] (setting [5]) turned out to be 7.33. Also, the IC50 in assay [4] is 589 nM. For the same compound, the GI50 in assay [2] was found to be 1480 nM.
In turn, `CC(Nc1cc(=O)n(C)c2ccc(Nc3ccnc(Cl)c3C#N)cc12)c1ncc(C2CC2)cn1` (centres unmarked) [Example 10e, 2-chloro-4-((4-((1-(5-cyclopropylpyrimidin-2-yl)ethyl)amino)-1-methyl-2-oxo-1,2-dihydroquinolin-6-yl)amino)nicotinonitrile] registered a GI50 in assay [2] of 1720 nM.
Take `Cn1c(=O)cc(NC(C)(C)c2ncccn2)c2cc(Nc3cc(C(=O)N4CC(C(F)(F)F)C4)nc(Cl)c3C#N)ccc21` [Example 8d, 2-chloro-4-((1-methyl-2-oxo-4-((2-(pyrimidin-2-yl)propan-2-yl)amino)-1,2-dihydroquinolin-6-yl)amino)-6-(3-(trifluoromethyl)azetidine-1-carbonyl)nicotinonitrile]: the “HTRF pIC50” value in assay [1] (setting [5]) is 7.50. In addition, the IC50 in assay [4] was 240 nM. In assay [2], this compound displayed a GI50 of 450 nM.
With `Cc1cc(C)n(-c2ncc(Cl)c(Nc3ccc4c(c3)c(N[C@H](C)C3CC3)cc(=O)n4C)n2)n1` [Example 14c, (R)-6-((5-chloro-2-(3,5-dimethyl-1H-pyrazol-1-yl)pyrimidin-4-yl)amino)-4-((1-cyclopropylethyl)amino)-1-methylquinolin-2(1H)-one], the “HTRF pIC50” value in assay [1] (setting [5]) is listed as 6.54. Further, the IC50 in assay [4] was 891 nM. The GI50 in assay [2] was 760 nM.
The matching figures for `C[C@@H]1CN(c2ncc(Cl)c(Nc3ccc4c(c3)c(NC(C)(C)c3ncccn3)nc(=O)n4C)n2)C[C@H](C)O1` [Example 26f, 6-[[5-chloro-2-[(2R,6S)-2,6-dimethylmorpholin-4-yl]pyrimidin-4-yl]amino-1-methyl-4-[(1-methyl-1-pyrimidin-2-yl)ethyl)amino]quinazolin-2-one:formic acid (1:1)]: 6.99, 676 nM and 440 nM.
Regarding `CC(Nc1nc(=O)n(C)c2ccc(Nc3nc(N4C[C@@H](C)C(F)(F)[C@@H](C)C4)ncc3Cl)cc12)c1ncccn1` (mixture of isomers) [Example 12h, rac-6-((5-chloro-2-((3R,5S)-4,4-difluoro-3,5-dimethylpiperidin-1-yl)pyrimidin-4-yl)amino)-1-methyl-4-((1-(pyrimidin-2-yl)ethyl)amino)quinazolin-2(1H)-one], the IC50 in assay [1] (further generated data (Table 1b), 1 nM Trx-6xHis-BCL6, 0.5 nM anti-6xHis-Terbium cryptate, read-out: HTRF pIC50 (converted)) is 251 nM. The same compound displayed a GI50 in assay [2] of 340 nM.
Take `Cn1c(=O)cc(NC(C)(C)c2ncccn2)c2cc(Nc3ccnc(Cl)c3Cl)ccc21` [Example 6b, 6-((2,3-dichloropyridin-4-yl)amino)-1-methyl-4-((2-(pyrimidin-2-yl)propan-2-yl)amino)quinolin-2(1H)-one]: the “HTRF pIC50” value in assay [1] (setting [5]) amounted to 6.81. The IC50 in assay [4] was 1380 nM. This compound also displayed a GI50 in assay [2] of 2130 nM.
The matching figures for `CC(Nc1cc(=O)n(C)c2ccc(Nc3ccnc(Cl)c3C#N)cc12)c1ncc(N2C[C@@H](C)O[C@@H](C)C2)cn1` (stereo partly drawn) [Example 10b, 2-chloro-4-((4-((1-(5-((2S,6R)-2,6-dimethylmorpholino)pyrimidin-2-yl)ethyl)amino)-1-methyl-2-oxo-1,2-dihydroquinolin-6-yl)amino)nicotinonitrile]: 7.39, 490 nM and 290 nM.
With `Cn1c(=O)cc(NC2(c3ncccn3)CC2)c2cc(Nc3ccnc(Cl)c3C#N)ccc21` [Example 10u, 2-chloro-4-((1-methyl-2-oxo-4-((1-(pyrimidin-2-yl)cyclopropyl)amino)-1,2-dihydroquinolin-6-yl)amino)nicotinonitrile], the “HTRF pIC50” value in assay [1] (setting [5]) turned out to be 6.19. In assay [4], the IC50 is 8710 nM.
As for `C[C@@H](CO)Nc1cc(=O)n(C)c2ccc(Nc3ccnc(Cl)c3C#N)cc12` [Example 3g, (S)-2-Chloro-4-((4-((1-hydroxypropan-2-yl)amino)-1-methyl-2-oxo-1,2-dihydroquinolin-6-yl)amino)nicotinonitrile], the “HTRF pIC50” value in assay [1] (setting [5]) is 6.39; in assay [1] (setting [6]), 6.43. In addition, in assay [4], the IC50 was 20900 nM.
As for `CNC(=O)c1cc(Nc2ccc3c(c2)c(NC(C)(C)c2ncccn2)cc(=O)n3C)c(C#N)c(Cl)n1` [Example 1u, 6-chloro-5-cyano-N-methyl-4-[[1-methyl-4-[(1-methyl-1-pyrimidin-2-yl-ethyl)amino]-2-oxo-6-quinolyl]amino]pyridine-2-carboxamide], the entries for the “HTRF pIC50” value in assay [1] (setting [5]) and in assay [1] (setting [6]) were 7.51 and 7.44, respectively. Also, the IC50 in assay [4] was 525 nM.
For the compound `CC(Nc1cc(=O)n(C)c2ccc(Nc3ccnc(C#N)c3Cl)cc12)c1ncccn1` (centres unmarked) [Example 19h, 3-chloro-4-((1-methyl-2-oxo-4-((1-(pyrimidin-2-yl)ethyl)amino)-1,2-dihydroquinolin-6-yl)amino)picolinonitrile], the “HTRF pIC50” value in assay [1] (setting [5]) is 6.17. Moreover, the IC50 in assay [4] is 15100 nM.
On to `Cn1c(=O)cc(NC(C)(C)c2ncccn2)c2cc(Nc3ccnc(Cl)c3C#N)cnc21` [Example 1x, 2-chloro-4-[[8-methyl-5-[(1-methyl-1-pyrimidin-2-yl-ethyl)amino]-7-oxo-1,8-naphthyridin-3-yl]amino]pyridine-3-carbonitrile], for which the “HTRF pIC50” value in assay [1] (setting [5]) is 7.20; in assay [1] (setting [6]) it was 6.68. In addition, the IC50 in assay [4] was 1580 nM.
